We go through one substance from US20060135458A1, “Antiviral oligonucleotides” (priority 2002, published 2006).

In the oligonucleotide strings, read from the 5' end, every base follows the letter of its sugar. An asterisk marks phosphorothioate; unmarked linkages are phosphodiester. Other units and linkages are bracketed, terminal groups are in braces. A string of capitals states the bases alone. d = 2'-deoxy (DNA)

The data set relates to Bal 31. Set-up: key to the marks not given beside the values.

In the case of “REP 2029: A40 (polyA) PS-ON (DNA dA*dA*dA*dA*dA*dA*dA*dA*dA*dA*dA*dA*dA*dA*dA*dA*dA*dA*dA*dA*dA*dA*dA*dA*dA*dA*dA*dA*dA*dA*dA*dA*dA*dA*dA*dA*dA*dA*dA*dA)”, the “Nuclease resistance, Bal 31” value was “++++”.
